test system: Plasmodium falciparum; assay: GSK_TCMDC: Inhibition of Plasmodium falciparum 3D7 in whole erythrocytes, using parasite LDH activity as an index of growth.; format: functional, organism-based; conditions: Plasmodium falciparum, 3D7

Compound	XC50 [nM]
COc1ccc2nc(C)cc(N/N=C/c3ccc([N+](=O)[O-])o3)c2c1	698
COc1cc2c(Nc3ccc(NC(=O)c4ccccc4)cc3)ncnc2cc1OCCCN1CCOCC1	648
O=C(Cn1c(CCc2cccc(F)c2F)nc(=O)c2ccccc21)N(Cc1ccc(-c2ccc(C(F)(F)F)cc2)cc1)C1CCN(C2=NCCS2)CC1	1330
Cc1cc2c(NC(=O)NC3CCN(Cc4ccc(Cl)c(Cl)c4)CC3)cccc2cn1	681
CN(C)CC(O)C(c1ccccc1)c1cccc(Br)c1 (configuration not stated)	164
Cc1noc(-c2ccc3c(c2)CCN(CCC2CCC(NC(=O)/C=C/c4cccc(Cl)c4)CC2)CC3)n1 (configuration not stated)	998
O=C(Nc1ccc(-c2cccc(-c3nc4ccccc4[nH]3)c2)cc1)Nc1ccc2c(c1)OCO2	254
Cc1cc(NC(=O)c2sc3ccccc3c2O)no1	809
COc1cc(C(=O)Nc2ccc(-c3nc4ccccc4[nH]3)cc2)cc(OC)c1OC	982
O=C(COc1cccc([N+](=O)[O-])c1)Nc1ccc(-c2nc3ccccc3[nH]2)cc1	754
O=C(/C=C/c1ccc(Cl)cc1)NCCCCCN1CCN(C(=O)Nc2ccc(Cl)c(C(F)(F)F)c2)CC1	920
O=C(n1c(-c2cc3ccccc3n2C(=O)C(F)(F)F)cc2ccccc21)C(F)(F)F	878
CC(=O)Nc1ccc(S(=O)(=O)Nc2c(C)cc(Cc3cnc(N)nc3N)cc2C)cc1	1000
Cc1[nH]c(C)c(-c2ccc(OCCSc3ccncc3)cc2)c(=O)c1Br	393
Cc1cccc2nc(-c3ccc(-c4cccc(CNCC5CCCO5)c4)s3)[nH]c12 (configuration not stated)	972
CNC(=O)c1cnc(Nc2ccc(N3CCOCC3)cc2)nc1Nc1cccc(O)c1	808
CCCCCCCOc1ccc(NC(=O)Nc2ccc(Cn3ncc(N4CCCNCC4)c(Cl)c3=O)cc2)cc1	923
COc1cc2nc(Nc3ccc4c(c3)OCCO4)nc(N)c2cc1OC	469
O=[N+]([O-])c1ccc2nc(Nc3ccc(Cl)c(Cl)c3)c(Nc3ccc(Cl)c(Cl)c3)nc2c1	793
CCNc1cc(C(=O)N[C@@H](Cc2ccccc2)[C@H](O)CNC2(CC)CCCCC2)cc(N2CCCCS2(=O)=O)c1	265
Nc1nc2c(c(=O)[nH]1)CN(S(=O)(=O)c1ccc(C(=O)N[C@@H](CCC(=O)O)C(=O)O)cc1)CC2	146
O=C(Nc1cc2cc(-c3ccc(CN4CCCCC4)cc3)ccc2n2cnnc12)NC1CCCC1	1520
COc1ccccc1NC(=S)N/N=C/c1ccc(O)cc1O	1020
COc1ccc(-c2nc3c(N)nc(N)nc3nc2C(C)C)cc1	188
COc1ccc2nc(C)cc(Nc3ccc(Oc4ccc5ccccc5c4Cl)c(Cl)c3)c2c1	501

Compound	XC50 [nM]
COC(=O)c1ccc(CC(C)NCC(O)c2cccc(SC(F)(F)F)c2)cc1 (configuration not stated)	887
O=c1cc(NCCCNC(CNCCc2ccccc2)c2cc(Br)cc(Br)c2)[nH]c2ccccc12 (configuration not stated)	864
COc1ccc2ncc(F)c([C@H](O)CN3CCC(NCc4ccc5c(c4)OCCO5)CC3)c2c1	152
COc1ccc2nccc([C@@H](O)CN3CCC(NC/C=C/c4cccnc4)CC3)c2c1	622
O=C(Nc1cccc(N2CCC(NCc3cccnc3)CC2)c1)c1cccc(C(F)(F)F)c1	970
O=C(NC1CCN(c2ccnc3cc(Cl)ccc23)C1)c1ccc(C(F)(F)F)cc1 (configuration not stated)	143
CCn1ncc(Cl)c1CN(C)S(=O)(=O)c1ccc(Br)cc1	1020
CCN(CC)CCOc1ccc(C(O)(C#CC(O)(c2ccc(OCCN(CC)CC)cc2)c2ccc([N+](=O)[O-])cc2)c2ccc([N+](=O)[O-])cc2)cc1 (configuration not stated)	1730
O=[N+]([O-])c1ccc(N/C(=N\c2ccccc2Br)NC2CCCc3ccccc32)c(O)c1 (configuration not stated)	919
COC(=O)c1ccc(CC(C)NCC(O)c2cc(Cl)c(N)c(Cl)c2)cc1 (configuration not stated)	877
O=C(Nc1ccc(OC2CCN(Cc3ccc(F)cc3)C2)c(Cl)c1)c1ccsc1 (configuration not stated)	538
O=C(NCC1CCC1)c1cnc(Nc2cccc(Cl)c2)nc1N1CCC1	862
Cc1cc(OCC2CCN(c3ncc(C(=O)Nc4ccccc4)cc3Cl)CC2)ccc1F	899
CN(C(=O)/C=C/c1ccccc1F)C1CCN(CCCCCNC(=O)/C=C/c2ccc(Cl)c(Cl)c2)CC1	509
CCCN(CC(=O)NCCc1ccccc1)c1ccc(C#N)c2ccccc12	500
O=C(Nc1ccc(Cl)cc1)c1cccc(S(=O)(=O)NC2CCN(CC3CCCCC3)C2)c1 (configuration not stated)	905
Cc1ccc(O)cc1Nc1ccnc2ccc(-c3csc(CNCCN4CCOCC4)n3)cc12	153
Clc1ccc(CNCCCCCCNCc2ccc(Cl)cc2)cc1	845
CN(C)Cc1ccc(-c2ccc3ccnc(N)c3c2)cc1	380
CC(C)CCNC(=O)C1Cc2c([nH]c3cc(Cl)ccc23)C2(CCN(CCc3ccccc3)CC2)N1 (configuration not stated)	690
CCc1nc2c(cnn2CC)c(NC2CCOCC2)c1CNC(=O)N1CCOCC1	892
Oc1c(C(Nc2nc3ccccc3s2)c2ccccc2)ccc2cccnc12 (configuration not stated)	646
CCOc1cc(C(=O)NCc2ccc(Cl)c(Cl)c2)ccc1-c1nc2cc(Cl)ccc2[nH]1	804
O=C1CCCC1Sc1nc2ccccc2c(=O)n1-c1ccc(Cl)c(Cl)c1 (configuration not stated)	726
CC1(C)C(=O)Nc2ccc3c(c21)CC1SC(=O)NN=C31 (configuration not stated)	1490

Compound	XC50 [nM]
CCOc1ccc2c(=NN=Cc3cc(OC)c(OC)c(OC)c3)cc(C)[nH]c2c1	613
c1ccc2c(CNc3ccnc(NCc4cccc5ccccc45)n3)cccc2c1	559
N#Cc1ccc(C(=O)NC2CCN(CCCCCNC(=O)/C=C/c3ccc(Cl)c(Cl)c3)CC2)cc1	836
COc1ccc(OC)c(Cc2cnc3nc(N)[nH]c(=O)c3c2C)c1	357
CN(c1ccc(NC(=O)Nc2cc(C(F)(F)F)ccc2F)cc1)c1ccnc(NCCN2CCOCC2)n1	512
CN1CCCN(Cc2ccc(-c3cccc(NC(=O)c4ccc(Cl)cc4)c3)cc2)CC1	610
CCC1CN2CCc3c([nH]c4ccccc34)C2CC1CC1=NCCc2c1[nH]c1ccccc21 (configuration not stated)	737
N#Cc1cccc(C(=O)Nc2ccc(-c3nc4ccccc4[nH]3)cc2)c1	541
CCN(CC)CCOC(=O)c1ccc(NC(=O)c2cn(-c3ccccc3)nc2-c2cccs2)cc1	379
CCN(CCNc1nc(NCCc2cnc[nH]2)nc(N(CCC#N)Cc2ccccc2)n1)c1cccc(C)c1	715
Oc1ccc(Cl)cc1CN1CCC(CCOC(c2ccccc2)c2ccc(Cl)cc2)CC1 (configuration not stated)	390
N#Cc1cncc(-c2nc3c(N4CCC(Cc5ccccc5)CC4)cccc3n2C2CCNC2)c1 (configuration not stated)	987
COc1ccc(C2c3ccccc3-c3nc(N)nc(N)c3C2C)cc1 (configuration not stated)	241
COc1cccc(OC)c1CN1CCC(N(C)CCCCCCCCCN2CCC(OC(=O)Nc3ccccc3-c3ccccc3)CC2)CC1	319
COc1ccc(CN2CCC(NCc3cccc(C(F)(F)F)c3)CC2)cc1	753
Cc1cccc2nc(-c3ccc(-c4cccc(NC(=O)Cc5c[nH]cn5)c4)cc3)[nH]c12	903
Cc1cc(C)c2cc(CNCCCNc3nc4ccccc4[nH]3)[nH]c2c1	768
CN(C(=O)c1ccccc1)C1c2cc(C#N)ccc2OC(C)(C)C1O (configuration not stated)	654
CN1CCC(C(=O)Nc2ccc(-c3ccc(-c4nc5ccccc5[nH]4)cc3)cc2)CC1	976
CCC[C@@H]([C@@H](CC1CCCCC1)C(=O)N[C@H](C(=O)Nc1ccccn1)[C@H](C)CC)N(O)C=O	533
Cc1cccc2nc(-c3cccc(-c4cccc(CNCc5ccc(S(C)(=O)=O)cc5)c4)c3)[nH]c12	299
O=C(N/C=N/c1cc([N+](=O)[O-])c(-c2ccncc2)n1-c1ccccc1)c1cccc(O)c1	331
CCOC(=O)c1ccc(-c2c(C(F)(F)F)noc2-c2cc(CC)c(OC)cc2O)o1	206
CON=C1CCC(Cn2ccnc2)(c2ccc(Cl)cc2Cl)CC1 (configuration not stated)	875
COc1cccc(C(C)(C)NC[C@@H](O)[C@H](Cc2ccccc2)NC(=O)c2cc(C3CCCC3)cc(N3CCCCS3(=O)=O)c2F)c1	28.9

Compound	XC50 [nM]
Cc1ccc(CC(C)NCC(O)c2cccc(Cl)c2)cc1F (configuration not stated)	742
N#Cc1ccc(NC(=O)N2CCCN(CCCCCNC(=O)/C=C/c3ccc(Cl)c(Cl)c3)CC2)cc1	768
COc1ccc(NC(=O)c2ccc(-c3nc(-c4ccccc4)cs3)cc2)cc1N1CCN(C)CC1	992
Cc1ccnc(Nc2nc(-c3ccccn3)cs2)c1	998
COCCN1CCC(CN(C)CC(C)(C)c2nc(-c3ccc(Cl)c(O)c3)c(-c3ccncc3)[nH]2)CC1	1030
O=C(Nc1ccccc1)Nc1ccc(-c2cccc(-c3nc4cc(C(F)(F)F)ccc4[nH]3)c2)cc1	734
O=C(c1ccc(O)c(-c2cc(Cl)cc(Cl)c2)c1)N1CCCC1	1000
CCCCOc1ccc(-n2c(Nc3ccccc3)nc3cc(S(N)(=O)=O)ccc32)cc1	887
Nc1cccc(CNCc2ccc(-c3ccc(-c4nc5cc(F)ccc5[nH]4)s3)cc2)c1	992
O=C(Nc1cccc(C(F)(F)F)c1)c1ccc(S(=O)(=O)NCC2CCN(CC3CCCCC3)CC2)cc1	320
Clc1ccc2c(N3CCN(CCN4CCN(c5ccnc6cc(Cl)ccc56)CC4)CC3)ccnc2c1	128
O=C(C=Cc1ccc(Cl)c(Cl)c1)NCCCCCN1CCC(CCCNC(=O)c2sc3ccccc3c2Cl)CC1	398
CC(Cc1ccc(NC(=O)[C@H](C)NCCc2cccc(Cl)c2)cc1)NCCc1cccc(Cl)c1 (some centres not stated)	663
COc1cc(CCCOc2c(N)nc(N)nc2N)cc(OC)c1OC	1220
COc1ccc2nccc([C@@H](O)CN3CCC(NCCOc4ccccc4C#N)CC3)c2c1	398
COc1ccc(Nc2ncc3c(-c4ccc(NC(=O)c5cccc(C(F)(F)F)c5)cc4)c[nH]c3n2)cc1OC	1030
COC(=O)c1cc(OC2CCOC2=O)cc2c1OC(C)(C)O2 (configuration not stated)	806
O=C(Nc1ccccc1)Nc1ccc(-n2ccc(C(F)(F)F)n2)cc1	632
COc1c(C2CCN(CCCCNC(=O)c3ccc(-c4ccc(Cl)cc4)c(OCCN(C)C)c3)CC2)ccc2c1CCCC2	190
O=C(N[C@@H](Cc1ccccc1)[C@H](O)CNC1CCCCC1)c1cc(C2CCCC2)cc(N2CCCC2=O)c1	169
CN(c1ccc2c(c1)nc(NCc1ccc(F)cc1)n2C)c1ccnc(Nc2ccc(CS(C)(=O)=O)cc2)n1	828
COc1ccc(CNCC(C)(C)c2nc(-c3ccc(Cl)c(O)c3)c(-c3ccncc3)[nH]2)cc1	357

Reference: ChEMBL document CHEMBL1157539, “Thousands of chemical starting points for antimalarial lead identification” (Nature, 2010)
